Data from patent publication US20250228958A1, “TSP1 INHIBITOR” (Daiichi Sankyo Company, Limited, priority 2022, published 2025).
“Also recorded” adds a separate entry of the source. Blank lines part the entries; values can stand above or below the molecule they belong to. Positions of bridges follow the written chain, without caps; N, C: chain ends. Non-standard residues stand in square brackets, D forms with d. Residues, ends and D or L forms follow the SMILES beside them. Chains are numbered I, II in the order given. No end group written: not given here. maleimide = maleimide-group-derived moiety in the linking group, forming a thioether bond with the thiol of a cysteine residue of the carrier molecule; KPEG = (2S)-6-amino-2-[[2-(methoxy-oligo(ethoxy))acetyl]amino]hexanoic acid (Lys with N-alpha methoxy-PEG acetyl); 2Nal = N[C@@H](Cc1ccc2ccccc2c1)C(=O)O; Gly(cPent) = N[C@H](C(=O)O)C1CCCC1; Agb = N=C(N)NCC[C@H](N)C(=O)O; Tle = CC(C)(C)[C@H](N)C(=O)O; hCys = N[C@@H](CCS)C(=O)O; P12P = not defined here

Key:
[1] = tested on: C57BL/6 mice, ischemic limb blood flow; assay: Blood flow improvement measurement tests (femoral artery/vein ligation and excision, laser Doppler); assay type: in vivo, mouse; details: for blood flow AUC, % of vehicle group mean: blood flow AUC from beginning to end of measurement, ratio to vehicle-treated group mean; for %, ischemia/nonischemia (blood flow on the last day of measurement): mean ± standard error, ratio of ischemic limb flow to non-ischemic limb flow
From the text: Six to seven-week-old C57BL/6 mice were purchased from Charles River Laboratories Japan Inc., and acclimated over six days by feeding with a FR-2 solid diet (produced by Funabashi Farm Co., Ltd.). The rearing facility switched between light and dark modes in a 12-hour cycle with light turning on at 7 a.m. and turning off at 7 p.m. Under isoflurane inhalation anaesthesia, the left thighs of the mice were dissected, and the superficial femoral arteries and veins (from just below the deep femoral arteries to the popliteal artery and vein) were ligated and excised. […] Five mice were used for each treatment group.
Blood flows were measured in ischemic (left) and non-ischemic (right) limbs using a laser Doppler perfusion imager (PeriScan PIM III, Moor LD12-HR). The improvement of blood flow was evaluated by the ratio of ischemic limb flow to non-ischemic limb flow. […] In addition, blood flow AUC was calculated to determine the ratio (%) of the mean value of the test substance-treated group to the mean value of the vehicle-treated group.

[2] = Serum stability test, monkey serum; assay type: in vitro ADME, cynomolgus monkey; details: male, residual ratio: IS ratio at 4 hours relative to 0 hours, 37° C.
From the text: (§1) • Mouse serum (BALB/c CrSlc, male, Japan SLC, Inc.) • Monkey serum (cynomolgus monkey, male, Japan SLC, Inc.) • Human serum (Caucasian, pool of 5 males and 5 females, KAC Co., Ltd.) • Phenacetin (Nacalai Tesque, Inc.) • Niflumic acid (Nacalai Tesque, Inc.) • Furosemide (Nacalai Tesque, Inc.) • Acetonitrile (FUJIFILM Wako Pure Chemical Corporation) • Methanol (FUJIFILM Wako Pure Chemical Corporation) • Formic acid (FUJIFILM Wako Pure Chemical Corporation) • Dimethyl sulfoxide (DMSO) (FUJIFILM Wako Pure Chemical Corporation)
(§2) Solutions of Phenacetin, niflumic acid, and furosemide were prepared in DMSO at 10 μg/ml, 150 μg/ml, and 200 μg/ml, respectively. 10 μg/ml of phenacetin in DMSO, 150 μg/ml of niflumic acid in DMSO, and 200 μg/ml of furosemide in DMSO were dissolved in a mixture of […]/methanol (75/25, v/v) (final concentrations: phenacetin; 1 ng/mL, niflumic acid: 15 ng/mL, and furosemide 20 ng/mL), and formic acid was added to the prepared test solution (final concentration: 1% (v/v)) to prepare a formic acid-containing IS solution.
(§3) The test substances were prepared in DMSO to a concentration of 10 mM each. Further, the solution was diluted with DMSO to a concentration of 2 mM to make a test substance solution.
(§4) Each serum was preincubated at 37° C. for 5 minutes, and then the test substance solution was added to a final concentration of 20 μM to initiate the reaction. The test substance-added serum was incubated at 37° C. At 0 and 4 hours after the start of the reaction, a portion of the serum was taken out and added to the formic acid-containing IS solution to stop the reaction, which was used as a measurement sample.
(§5) The test substance and IS (phenacetin, niflumic acid, and furosemide) in the measurement sample were measured by LC-MS/MS, and the peak area ratio (IS ratio) of the test substance to IS (any of phenacetin, niflumic acid, and furosemide) was calculated.
(§6) The percentage of the IS ratio at 4 hours after the start of the reaction relative to that at 0 hours after the start of the reaction was used as a residual ratio to evaluate serum stability.

[3] = Serum stability test, mouse serum; assay type: in vitro ADME
From the text: as §1, §2, §3, §4, §5, §6

[4] = Serum stability test, human serum; assay type: in vitro ADME; details: both sexes, residual ratio: IS ratio at 4 hours relative to 0 hours, 37° C.
From the text: as §1, §2, §3, §4, §5, §6

human TSP1 = molecular target: T1, human TSP1 (Homo sapiens, UniProt P07996); assay: Cell adhesion inhibition assay (HUVEC adhesion to TSP1-coated plate); assay type: cell-based; details: inhibition of HUVEC adhesion to human TSP1-coated plate
T1 construct: Thrombospondin human platelet (Calbiochem, 605225); purchased Calbiochem 605225; host or cells: human platelets (natural source, not recombinant)
T1 sequence (P07996 19-1170): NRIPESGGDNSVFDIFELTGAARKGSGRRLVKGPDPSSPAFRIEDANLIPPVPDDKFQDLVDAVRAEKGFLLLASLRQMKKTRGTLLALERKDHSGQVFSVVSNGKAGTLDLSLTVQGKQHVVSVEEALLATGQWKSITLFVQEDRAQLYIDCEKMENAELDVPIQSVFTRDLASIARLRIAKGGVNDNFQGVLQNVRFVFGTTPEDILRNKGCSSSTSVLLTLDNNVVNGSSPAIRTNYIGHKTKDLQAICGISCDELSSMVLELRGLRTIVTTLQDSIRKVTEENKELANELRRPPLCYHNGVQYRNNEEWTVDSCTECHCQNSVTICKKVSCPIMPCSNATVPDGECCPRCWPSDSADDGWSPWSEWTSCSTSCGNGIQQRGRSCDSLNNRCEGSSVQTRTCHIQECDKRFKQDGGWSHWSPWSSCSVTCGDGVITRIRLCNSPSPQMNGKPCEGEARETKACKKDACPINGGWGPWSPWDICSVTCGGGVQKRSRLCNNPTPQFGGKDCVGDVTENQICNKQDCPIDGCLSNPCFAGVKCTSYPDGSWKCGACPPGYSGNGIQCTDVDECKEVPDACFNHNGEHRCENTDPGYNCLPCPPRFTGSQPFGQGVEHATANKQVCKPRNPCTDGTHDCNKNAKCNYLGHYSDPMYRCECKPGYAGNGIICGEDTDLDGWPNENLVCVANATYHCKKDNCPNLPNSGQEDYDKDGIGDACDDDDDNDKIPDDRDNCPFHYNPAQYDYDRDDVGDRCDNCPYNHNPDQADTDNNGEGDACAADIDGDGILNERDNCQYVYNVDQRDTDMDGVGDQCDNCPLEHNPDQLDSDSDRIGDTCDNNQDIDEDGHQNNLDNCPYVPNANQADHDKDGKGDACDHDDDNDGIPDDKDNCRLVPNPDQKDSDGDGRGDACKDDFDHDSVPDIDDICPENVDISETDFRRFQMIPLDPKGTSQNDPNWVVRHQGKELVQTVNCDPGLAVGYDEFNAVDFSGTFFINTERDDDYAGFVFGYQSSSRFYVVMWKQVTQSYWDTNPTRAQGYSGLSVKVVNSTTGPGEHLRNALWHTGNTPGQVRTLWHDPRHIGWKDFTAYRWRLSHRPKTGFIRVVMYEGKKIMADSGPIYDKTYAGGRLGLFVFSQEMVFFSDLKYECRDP
Procedure: • 384-well Low Flange Black Flat Bottom Polystyrene Not Treated Microplate (Corning, 3573) • Proteosave(registered trademark) SS 15 mL (Sumitomo Bakelite, MS-52150) • Thrombospondin human platelet (Calbiochem, 605225) • HUVEC (KURABO, KE-4109P10) • EGM-2 MV (Lonza, CC-3202): for HUVEC passaging • Collagen coated dish (IWAKI, 4020-010): for HUVEC passaging • Lipidure(registered trademark)-BL802 (NOF Corporation), 5% solution • DMEM low glucose (GIBCO, 11054-020) • Bovine serum albumin (BSA) solution 30% (Sigma A9205) • CellTiter-Glo 2.0 (Promega G9242) […]
To maintain human umbilical vein endothelial cells, HUVECs, EGM2-MV and a collagen coated dish were used (the cells were ceased to be used after 10th or 11th passage since the cell proliferation rate declined at this stage). […] After removal of supernatant, the cells were resuspended in a DMEM buffer, counted for cell number, and diluted to 6000 cells/10 μL. […]
The culture medium was removed, and the plate was washed twice with 30 L/well of HBSS/Hepes 0.5% BSA. […] Fluorescence emission was detected using EnVision Xcite Multilabel Reader (produced by Perkin Elmer).
On the basis of the measured fluorescence values, the IC50 values (nM) of the different cyclic peptides and conjugates for inhibition of cell adhesion were calculated. […]

[5] = molecular target: Thrombospondin human platelet (Calbiochem, 605225) (human, UniProt P07996 19-1170); assay: cell-based or functional assay
Sequence of Thrombospondin human platelet (Calbiochem, 605225) (P07996 19-1170 limits assumed): as the sequence (P07996 19-1170) above

Molecule: CC(=O)N[C@H]1[C@H]([C@H](O)[C@H](O)CO)O[C@](CO)(OC[C@H]2O[C@@H](OC3[C@@H](CO)C[C@H](O[C@@H]4[C@@H](OC[C@H]5OC(O[C@H]6[C@H](O)[C@@H](NC(C)=O)C(O[C@H]7[C@H](O)[C@@H](NC(C)=O)C(OCC(=O)NCCCC[C@H](NC(=O)CNC(=O)CNC(=O)CNC(=O)CNC(=O)[C@@H]8CSCC(=O)N[C@@H](Cc9ccc%10ccccc%10c9)C(=O)N[C@H](CCCNC(=N)N)C(=O)N[C@@H](CO)C(=O)NCC(=O)N[C@@H](CCNC(=N)N)C(=O)N[C@H](CC(N)=O)C(=O)N[C@@H](Cc9c[nH]c%10ccccc9%10)C(=O)N[C@@H](C(C)N)C(=O)N[C@H](CCCNC(=N)N)C(=O)N[C@@H](Cc9c[nH]c%10ccccc9%10)C(=O)N[C@@H](C9CCCC9)C(=O)N8)C(=O)NCCOCCOCCOCCOCCOCCOCCOCCOCCOCCOCCOCCOCCC(=O)NCCOCCOCCOCCOCCOCCOCCOCCOCCOCCOCCOCCOCCC(=O)N[C@H](CCCCNC(=O)CCN8C(=O)CC(C)C8=O)C(N)=O)O[C@@H]7CO)O[C@@H]6CO)[C@@H](O)[C@@H](O[C@H]6O[C@H](CO)[C@@H](O)[C@H](O)[C@@H]6O[C@@H]6O[C@H](CO)C(O[C@@H]7O[C@H](CO[C@]8(C(=O)O)C[C@H](O)[C@@H](NC(C)=O)[C@H]([C@H](O)[C@H](O)CO)O8)[C@H](O)[C@H](O)[C@H]7O)[C@H](O)[C@H]6NC(C)=O)[C@@H]5O)O[C@H](CO)[C@@H](O)[C@@H]4O)[C@H](NC(C)=O)[C@H]3O)[C@H](O)[C@@H](O)[C@H]2O)C[C@@H]1O (some centres unmarked) [Conjugate-56]
blood flow AUC, % of vehicle group mean ([1]; 0.3 mg/kg): 187.6%
%, ischemia/nonischemia (blood flow on the last day of measurement) ([1]; 0.3 mg/kg): 40.2 ± 5.6%
blood flow AUC, % of vehicle group mean ([1]; 1 mg/kg): 318.4%
%, ischemia/nonischemia (blood flow on the last day of measurement) ([1]; 1 mg/kg): 74.8 ± 11.0%

B1: Conjugate-10 (other)
peptide: [2Nal]R[hCys]GRDW[hCys]RW[Gly(cPent)]CGSGSDD[KPEG][P12P][P12P]K(maleimide)-NH2
chain: DKTHTCPPCPAPEAAGGPSVFLFPPKPKDTLMISRTPEVTCVVVDVSHEDPEVKFNWYVDGVEVHNAKTKPREEQYNSTYRVVSVLTVLHQDWLNGKEYKCKVSNKALAAPIEKTISKAKGQPREPQVYTLPPSREEMTKNQVSLTCLVKGFYPSDIAVEWESNGQPENNYKTTPPVLDSDGSFFLYSKLTVDKSRWQQGNVFSCSVMHEALHNHYTQKSLSLSPGK
modifications: disulfide I:3-I:8; not fully specified; reading uncertain; also: Lys22 maleimide side chain thioether-linked to Fc hinge Cys6 and Cys9 (Eu 226, 229), thioether at chain A 1 at chain A 12 to a chain's N-terminus
IC50 for inhibition of cell adhesion (HUVEC to coated human TSP1) [5]: 12.8 nM

More lines, main results first:

remaining at 4 h, 20 μM [2]: 90.6%
remaining at 4 h, 20 μM ([3]; male, BALB/c CrSlc, mouse, mouse serum, residual ratio: IS ratio at 4 hours relative to 0 hours, 20 μM, 37° C.): 101%
remaining at 4 h, 20 μM [4]: 93.9%
IC50 (human TSP1): 12.6 nM
Molecule: N=C(N)NCCC[C@@H]1NC(=O)[C@H](Cc2ccc3ccccc3c2)NC(=O)CSC[C@@H](C(N)=O)NC(=O)[C@H](C2CCCC2)NC(=O)[C@H](Cc2c[nH]c3ccccc23)NC(=O)[C@H](CCCNC(=N)N)NC(=O)[C@@H]2CCSSCC[C@H](NC1=O)C(=O)NCC(=O)N[C@@H](CCNC(=N)N)C(=O)N[C@@H](CC(N)=O)C(=O)N[C@@H](Cc1c[nH]c3ccccc13)C(=O)N2 [Peptide-1] ({CH2CO}-[2Nal]R[hCys]G[Agb]NW[hCys]RW[Gly(cPent)]C-NH2; disulfide 3-8; thioether N-12)
serum stability (in words) ([3]; statement covers mouse, monkey and human serum, 4 hours): high serum stability; also recorded: higher serum stability

IC50 (human TSP1): 12.6 nM
Molecule: CC(C)(C)[C@@H]1NC(=O)[C@H](Cc2ccc3ccccc3c2)NC(=O)CSC[C@@H](C(N)=O)NC(=O)[C@H](C2CCCC2)NC(=O)[C@H](Cc2c[nH]c3ccccc23)NC(=O)[C@H](CCCNC(=N)N)NC(=O)[C@@H]2CCSSCC[C@H](NC1=O)C(=O)NCC(=O)N[C@@H](CCCNC(=N)N)C(=O)N[C@@H](CC(N)=O)C(=O)N[C@@H](Cc1c[nH]c3ccccc13)C(=O)N2 [Peptide-8] ({CH2CO}-[2Nal][Tle][hCys]GRNW[hCys]RW[Gly(cPent)]C-NH2; disulfide 3-8; thioether N-12)
